Values of other authors, collected in patent US20250387524A1, “METHOD AND SYSTEM FOR THE PRODUCTION OF DISINFECTION AND/OR STERILISATION SOLUTIONS” (UNIVERSITAT JAUME I, priority 2022, published 2025).

Details: EU-US approved

## O=CCCCC=O [Glutaraldehyde]
  Minimum biocidal concentration: ≥2%

## O=Cc1ccccc1C=O [Orto-phtalaldehyde]
  Minimum biocidal concentration: 0.55%
